Non-standard residues stand in square brackets, D forms with d. Residues, ends and D or L forms follow the SMILES beside them. pY = N[C@@H](Cc1ccc(OP(=O)(O)O)cc1)C(=O)O
Legend:
Type in all cases: binding
[1] = biological target: T1, STAT5a (Homo sapiens, UniProt P42229); experiment: HTRF assay, STAT5a; conditions: STAT5a 110 nM, without reducing agent, 1 h
T1 sequence (P42229 1-794): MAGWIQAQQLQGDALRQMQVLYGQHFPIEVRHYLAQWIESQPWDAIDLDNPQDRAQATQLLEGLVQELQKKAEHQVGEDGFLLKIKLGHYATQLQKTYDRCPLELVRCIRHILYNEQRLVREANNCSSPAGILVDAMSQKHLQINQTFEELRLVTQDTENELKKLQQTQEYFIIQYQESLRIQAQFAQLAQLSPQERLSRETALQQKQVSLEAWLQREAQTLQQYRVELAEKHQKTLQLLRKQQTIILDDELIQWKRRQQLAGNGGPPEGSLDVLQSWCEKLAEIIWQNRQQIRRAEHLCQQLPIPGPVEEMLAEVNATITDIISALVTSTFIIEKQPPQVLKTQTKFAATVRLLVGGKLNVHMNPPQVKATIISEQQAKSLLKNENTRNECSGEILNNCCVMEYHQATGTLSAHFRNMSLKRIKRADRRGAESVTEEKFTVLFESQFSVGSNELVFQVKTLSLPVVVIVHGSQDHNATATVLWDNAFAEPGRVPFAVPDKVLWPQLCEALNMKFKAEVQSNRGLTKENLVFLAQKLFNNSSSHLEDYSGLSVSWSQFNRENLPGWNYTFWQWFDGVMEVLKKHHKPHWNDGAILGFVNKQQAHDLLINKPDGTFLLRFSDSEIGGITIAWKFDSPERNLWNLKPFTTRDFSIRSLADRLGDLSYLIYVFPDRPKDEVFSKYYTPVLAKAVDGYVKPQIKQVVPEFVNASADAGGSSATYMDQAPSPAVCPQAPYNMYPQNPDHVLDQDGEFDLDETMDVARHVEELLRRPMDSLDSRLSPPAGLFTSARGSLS
Description: (§1) The azo dyes PPADS and iso‐PPADS have a deep red color in aqueous solution. […] In order to exclude this possibility, we established homogeneous time‐resolved fluorescence resonance energy transfer (HTRF) assays to confirm the degree of binding between STAT4, STAT5a, and STAT5b and the respective 5‐carboxyfluorescein‐labeled binding peptides used in the FP assay. In addition, an HTRF assay was established for STAT3, one of the STAT proteins targeted to a lesser extent in FP assays, as a specificity control (Figure 1B,C). The STAT protein constructs each contain a 6x‐His‐tag.^[ [15], [16], [17], [22] ^] A Tb^3+‐cryptate fused to an anti‐6x‐His antibody was chosen as the long‐lived fluorescent donor, while the carboxyfluorescein linked to the respective STAT‐binding peptides served as the acceptor (Figure 2A). Emission was measured with a time delay of 60 μs after excitation, allowing any initial compound fluorescence to decay beforehand. […]
(§2) Screening of chemical libraries comprising approximately 5000 known bioactive compounds in fluorescence polarization-based assays against phosphorylation-dependent protein-protein interaction domains, including STAT proteins, has been described.[1] […]
(§3) Fluorescence polarization assays
(§4) Competitive fluorescence polarization (FP) assays for STAT1,[2] […] Briefly, peptide binding to proteins was analyzed using the following carboxyfluorescein (CF) -labelled pepti des at a concentration of 10 nM: STAT1: 5-CF-GpYDKPHVL-OH, STAT3: 5-CF-GpYLPQTV -NH2, STAT4: 5-CF-GpYLPQNID-OH, STAT5a and STAT5b: 5-CF-GpYLVLDKW-OH, STAT6: 5- […]
(§5) CFGp[…]-OH. […] FP was measured using an Infinite F500 plate reader (Tecan) and measurements were converted into percent inhibition according to the binding curve equation. Curves were plotted and best fits calculated using OriginPro […]
(§6) Homogenous time-resolved fluorescence (HTRF) assays for STAT3, STAT4, STAT5a and STAT5b were carried out using Cisbio Monoclonal Antibody Anti-6His-Tb Gold as the fluorescence donor (Perkin Elmer) and the corresponding CF-labelled binding peptide as the acceptor. […] The average reading from 3 wells was obtained. […]

[2] = biological target: T2, STAT5b (Homo sapiens, UniProt P51692); experiment: HTRF assay, STAT5b; conditions: STAT5b 80 nM, without reducing agent, 1 h
T2 sequence (P51692 1-787): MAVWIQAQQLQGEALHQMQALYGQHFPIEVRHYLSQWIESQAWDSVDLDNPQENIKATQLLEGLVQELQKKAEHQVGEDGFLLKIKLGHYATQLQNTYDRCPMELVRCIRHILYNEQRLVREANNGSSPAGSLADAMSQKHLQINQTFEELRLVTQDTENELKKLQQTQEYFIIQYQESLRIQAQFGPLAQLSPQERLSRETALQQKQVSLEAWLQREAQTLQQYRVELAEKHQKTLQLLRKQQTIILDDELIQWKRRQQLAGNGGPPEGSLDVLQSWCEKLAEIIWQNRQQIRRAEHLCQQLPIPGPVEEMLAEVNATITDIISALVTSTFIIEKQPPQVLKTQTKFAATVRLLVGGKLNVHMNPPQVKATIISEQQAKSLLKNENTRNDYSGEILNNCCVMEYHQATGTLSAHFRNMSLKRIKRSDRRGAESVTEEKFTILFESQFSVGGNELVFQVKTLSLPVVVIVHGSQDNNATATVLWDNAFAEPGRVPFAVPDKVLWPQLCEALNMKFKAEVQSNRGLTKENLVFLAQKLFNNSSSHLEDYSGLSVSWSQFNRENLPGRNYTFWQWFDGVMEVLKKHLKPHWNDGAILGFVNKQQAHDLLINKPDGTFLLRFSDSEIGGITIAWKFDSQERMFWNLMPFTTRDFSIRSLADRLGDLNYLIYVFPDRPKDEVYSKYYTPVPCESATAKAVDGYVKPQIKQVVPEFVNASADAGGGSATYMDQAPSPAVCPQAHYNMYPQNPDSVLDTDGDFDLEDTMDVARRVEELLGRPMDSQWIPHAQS
Description: as §1, §2, §3, §4, §5, §6

[3] = biological target: T3, STAT4 (Homo sapiens, UniProt Q14765); experiment: HTRF assay, STAT4; conditions: STAT4 30 nM, without reducing agent, 1 h
T3 sequence (Q14765 1-748): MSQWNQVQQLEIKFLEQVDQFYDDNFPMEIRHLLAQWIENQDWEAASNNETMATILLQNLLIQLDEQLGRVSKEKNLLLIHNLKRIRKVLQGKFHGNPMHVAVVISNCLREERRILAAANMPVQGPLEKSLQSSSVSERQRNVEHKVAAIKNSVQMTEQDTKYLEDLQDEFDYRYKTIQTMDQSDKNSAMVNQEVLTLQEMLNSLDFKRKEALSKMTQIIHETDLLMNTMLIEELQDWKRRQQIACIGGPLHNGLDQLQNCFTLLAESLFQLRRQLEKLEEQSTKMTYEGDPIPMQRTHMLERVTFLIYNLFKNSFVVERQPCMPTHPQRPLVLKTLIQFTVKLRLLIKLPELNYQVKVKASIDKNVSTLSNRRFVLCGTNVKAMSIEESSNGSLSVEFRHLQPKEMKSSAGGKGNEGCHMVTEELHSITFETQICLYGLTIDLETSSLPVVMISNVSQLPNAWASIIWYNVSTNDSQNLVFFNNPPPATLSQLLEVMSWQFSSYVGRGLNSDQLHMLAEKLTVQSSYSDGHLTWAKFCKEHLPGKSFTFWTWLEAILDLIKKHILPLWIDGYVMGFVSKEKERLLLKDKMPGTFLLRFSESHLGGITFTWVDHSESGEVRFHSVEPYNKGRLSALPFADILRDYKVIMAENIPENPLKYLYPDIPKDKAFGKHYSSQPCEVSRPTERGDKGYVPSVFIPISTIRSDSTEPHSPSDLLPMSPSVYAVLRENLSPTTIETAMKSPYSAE
Description: as §1, §2, §3, §4, §5, §6

Row | SMILES | IC50 [1] | IC50 [2] | IC50 [3]
1 | CC(C)C[C@H](NC(=O)[C@H](Cc1c[nH]c2ccccc12)NC(=O)[C@H](CCCCN)NC(=O)[C@H](CC(=O)O)NC(=O)[C@H](CC(C)C)NC(=O)[C@@H](NC(=O)[C@H](CC(C)C)NC(=O)[C@H](Cc1ccc(OP(=O)(O)O)cc1)NC(=O)[C@@H](NC(=O)[C@@H](N)CC(=O)O)[C@@H](C)O)C(C)C)C(=O)O (H-DT[pY]LVLDKWL-OH) | 2480 ± 270 nM | 4180 ± 250 nM | –
2 | CC[C@H](C)[C@H](NC(=O)[C@H](CC(N)=O)NC(=O)[C@H](CCC(N)=O)NC(=O)[C@@H]1CCCN1C(=O)[C@H](CC(C)C)NC(=O)[C@H](Cc1ccc(OP(=O)(O)O)cc1)NC(=O)CNC(C)=O)C(=O)N[C@@H](CC(=O)O)C(=O)O [Ac‐GpYLPQNID] (Ac-G[pY]LPQNID-OH) | – | – | 2010 ± 80 nM

Source: article PMC12442245, “Activity Analysis of the P2X Receptor Antagonist PPADS against Signal Transducer and Activator of Transcription Proteins” (Chembiochem, 2025)
